Assay results as given in BindingDB's records for doi:10.1016/j.chembiol.2008.10.017 (University of Toronto, 2008).

Molecular target: T1, Putative farnesyl pyrophosphate synthase (Cryptosporidium parvum (strain Iowa II), UniProt Q5CR09)
T1 sequence (Q5CR09 whole entry): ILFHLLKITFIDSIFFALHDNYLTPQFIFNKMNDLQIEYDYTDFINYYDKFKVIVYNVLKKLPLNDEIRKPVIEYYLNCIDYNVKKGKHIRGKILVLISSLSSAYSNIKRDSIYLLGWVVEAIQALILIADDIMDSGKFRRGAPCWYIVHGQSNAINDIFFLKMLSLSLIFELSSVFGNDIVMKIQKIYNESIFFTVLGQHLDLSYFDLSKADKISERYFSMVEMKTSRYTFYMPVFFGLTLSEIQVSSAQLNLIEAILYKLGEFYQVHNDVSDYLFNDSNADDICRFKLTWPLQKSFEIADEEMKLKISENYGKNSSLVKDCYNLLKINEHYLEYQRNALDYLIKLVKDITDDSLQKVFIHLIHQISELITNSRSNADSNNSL
Assay: Enzymatic Assay
Settings: pH 7.7; 37 °C
Protocol: Enzymatic assay using CpNPPPS was assayed using Reed and Rilling method with some modification.

Row | IC50 [nM] | Ki [nM] | Structure (SMILES)
1 | 30.1 | 0.05 | O=P(O)(O)C(O)(Cn1ccnc1)P(=O)(O)O
2 | 45.7 | 0.38 | O=P(O)(O)C(O)(Cc1cccnc1)P(=O)(O)O [JMC515594 Compound 64]
